Marks after values point to notes of the source that are not given here.
Experiments:
Assay type in all cases: in vivo
corn [1] = experiment: SDI split plot field study, 113 day maturity corn hybrid, Examples 13-14; details: 50% irrigated deficit
Protocol: A randomized complete block (split plot) study using Subsurface Drip Irrigation (SDI) was conducted on a deep silt loam soil using a 113 day maturity corn hybrid. This trial was conducted to quantify the impact of treatments on grain yield and water productivity of corn under limited (deficit) and fully-irrigated setting. The study utilized a subsurface drip irrigation (SDI) system with a nominal dripline flowrate of 0.25 gpm/100 ft for a 5-ft dripline spacing and 24-inch emitter spacing, installed at a depth of 16-18 inches. Irrigation control panels, chemical injection pumps, and filters were housed at the irrigation well house to manage irrigation and chemigation events.
The field study was set up as a randomized complete plot design with three replications on silt loam soil.
Each plot was 8 rows wide (6.1 meters) by 15 meters long. Soil water status was monitored throughout the growing season using soil moisture sensors. Corn seed was planted with a precision planter at a depth of 2 inches and rows spaced at 30 inches. The planting population was 30,000 seeds per acre. Testing parameters, and irrigation levels were conducted according to the Kansas State University experimental procedure [see, e.g.,: (1) Lamm, F. R., A. J. Schlegel, and G. A. Clark. 2003. Development of a Best Management Practice for Nitrogen Fertigation of Corn Using SDI. Appl. Engr in Agric. and (2) Lamm, F. R., H. L. Manges, L. R. Stone, A. H. Khan, and D. H. Rogers. 1995. Water requirement of subsurface drip-irrigated corn in northwest Kansas. Trans. ASAE, 38(2):441-448.]. Moisture levels, irrigation levels, evapotranspiration, and plant health were measured throughout the growing season. Climatic variables were measured (air temperature, rainfall, solar and net radiation, relative humidity, rainfall, wind speed and direction) throughout the season.
Irrigation for the fully irrigated treatments was scheduled according to need by a climatic water budget using calculated evapotranspiration as a withdrawal and with rainfall and irrigation as deposits. Irrigation amounts for each event for the fully irrigated plots were generally 0.5 inches for each event. The deficit irrigation treatments were scheduled at approximately 50% of the fully irrigated plots (5.9 inches/acre vs. 13.55 inches of water/acre). Volumetric soil water content was measured in one-foot increments to a depth of 8 ft on an approximately weekly basis throughout the crop season to determine total water use. Crop water use was calculated as the sum of irrigation, precipitation and changes in soil water between the initial and final soil water sampling dates. Water productivity was calculated as the crop yield divided by the seasonal water use. Maintenance crop protection products were applied as needed to manage weeds and pests throughout the season for all treatments including the control. Moddus (trinexapac-ethyl) was foliar-applied (tractor mounted sprayer) twice at a rate of 250 gai/ha at approximately the V3+V7 stages of the corn. Azoxystrobin (Quadris) was applied twice via drip irrigation at a rate of 0.8 fl. oz/1000 linear ft (261 gai/ha) at approximately V6 & R1 stages of the corn. Crop yield from each replication was recorded after harvest and adjusted to 15% moisture content. Corn yield components of crop grain yield, plants/area, ears/plant, and kernel weight were measured by hand harvesting a representative sample (20 feet long for one crop row near the center of each subplot).

corn [2] = experiment: SDI chemigation field study on grain yield under rainfed conditions, Examples 17-19; details: for Yield: optimum nitrogen rate 200 lbs. N/acre
Protocol: A chemigation study using Subsurface Drip Irrigation (SDI) was conducted to quantify the impact of treatment effects on grain yield under rainfed conditions. The field study was set up as a randomized complete plot design (split plot) with three replications on silt loam soil. Each plot was 8 rows wide (6.1 meters) by 34 meters long. Soil water status was monitored on an hourly basis every 30 cm up to 1.2 meters throughout the growing season using soil moisture sensors. Corn seed was planted with a precision planter at a depth of 2 inches and rows spaced at 30 inches. The planting population was 30,000 seeds per acre. Testing parameters and harvesting were conducted according to the University of Nebraska experimental procedure (see, e.g.,: Irmak, S, D. Z. Haman, and R. Bastug. Determination of Crop Water Stress Index for irrigation Timing and Yield Estimation of Corn. 2000. Agronomy Journal. 92:1221-1227). Moisture levels, evapotranspiration, and plant health were measured throughout the growing season. All microclimatic variables were measured (air temperature, rainfall, solar and net radiation, relative humidity, rainfall, wind speed and direction) so that the researcher could quantify the range of the microclimatic conditions under which this research was conducted to define the boundaries of experimental conditions.
No irrigation was applied to rainfed plots. […] Maintenance crop protection products were applied as needed to manage weeds and pests throughout the season for all treatments including the control. Azoxystrobin (Quadris) was applied twice via drip irrigation at a rate of 0.8 fl. oz/1000 linear ft (261 gai/ha) or by foliar application (tractor mounted sprayer) at 14 fl. oz./acre (261 gai/ha) at approximately the V6 & R1 stages of the corn. Moddus (trinexapac-ethyl) was foliar-applied (tractor mounted sprayer) once at a rate of 250 gai/ha at approximately the V7 stage of the corn. Crop yield from each replication was recorded after harvest and adjusted to 15.5% moisture content.

corn [3] = experiment: Greenhouse sub-surface chemigation, yield and root architecture under deficit water, Examples 20-23; details: for Yield (% difference from UTC) / Relative number of fine roots (% difference from UTC): sub-surface chemigation at V3/V4, maximum labeled rates, 50% plant-available water; for Relative number of fine roots (% difference from UTC): within 2 weeks of harvest; for Yield compared with the control, statistical statement: sub-surface chemigation, abiotic stress, P values <0.001 at the 95th percentile confidence interval
From the text: In this experiment, standardized growth conditions were applied across all corn treatments including: soil-water availability, soil texture and composition, soil chemical and physical properties, meteorological and environmental parameters, and plant nutrition in a greenhouse. No indication of plant disease or pest damage was observed over the course of the study and no pest management program was necessary. A homogeneous sand-organic matter soil mixture (0.18% organic matter) was used as the growth medium in 55-gal containers. These containers were used as a weighing lysimeter, where daily changes in system weight were used to calculate plant transpiration. Four corn plants were grown in each 55-gal container. Three 55-gal containers (12 plants total) made up each treatment. All irrigation and chemical treatments were applied via sub-surface irrigation. Chemical treatments consisted of: azoxystrobin (Quadris), paclobutrazol (Trimmit), trinexapac-ethyl (Moddus), and propiconazole (Tilt) at maximum labeled rates.
Corn plants were grown from seed and transplanted in the 55-gal drums approximately 14 days after planting. Uniform adequate irrigation was applied up to growth stage V3/V4 to ensure plant establishment. Chemical treatment applications were applied at growth stage V3/V4 via sub-surface chemigation. At stage V3/V4, irrigation was decreased to replicate deficit water conditions across all treatments for the remainder of the study period. Irrigation was managed daily to maintain 50% plant-available water. Visual signs of abiotic plant stress were observed approximately 30 days after chemical application. All corn plants were grown to yield and cobs were harvested when kernels were uniformly dry (15% moisture content). Root architecture, specifically relative number of fine roots, was measured at within 2 weeks of harvest using a digital imaging technique. Fine roots are related to water uptake productivity, which is directly tied to the ability of the plant to access soil-water under stress.

[4] = 250 gai/ha, foliar applied once (V7), 0% irrigated

SMILES | Yield (corn [1]; 250 gai/ha, foliar-applied twice (V3+V7)) | % Yield Increase by Product over Untr./50% irr. (corn [1]; 250 gai/ha, foliar-applied) | Water Prodctivity (IWUE) (corn [1]; 250 gai/ha, foliar-applied) | % Yield Increase by Product over Untr./0% irr. (corn [2]; [4]) | Yield (corn [2]; [4]) | Yield (% difference from UTC) (corn [3]) | Relative number of fine roots (% difference from UTC) (corn [3]) | Yield compared with the control, statistical statement (corn [3]) | Yield (corn [1]; 261 gai/ha, SDI chemigated twice (V6 & R1)) | % Yield Increase by Product over Untr./50% irr. (corn [1]; 261 gai/ha, SDI chemigated) | % increase in Water Productivity by Product over 50% irr. (corn [1]; 261 gai/ha, SDI chemigated) | Water Prodctivity (IWUE) (corn [1]; 261 gai/ha, SDI chemigated) | Yield (corn [2]; 261 gai/ha, SDI chemigated (V6 & R1), 0% irrigated dryland/rainfed) | % Yield Increase by Product over Untr./0% irr. (corn [2]; 261 gai/ha, SDI chemigated, 0% irrigated dryland/rainfed) | Yield (corn [2]; 261 gai/ha, foliar applied (V6 & R1), 0% irrigated dryland/rainfed) | % Yield Increase by Product over Untr./0% irr. (corn [2]; 261 gai/ha, foliar applied, 0% irrigated dryland/rainfed)
CCOC(=O)C1CC(=O)C(=C(O)C2CC2)C(=O)C1 (stereo not shown) [TXP, trinexapac-ethyl] | 235 Bu./acre | +28% Incr. over | 462 pounds of corn per inch of water applied | +4% incr over Untr./0% irr. | 141.9 Bu./acre | 15.6† % | 34.3† % | statistically different from the control |  |  |  |  |  |  |  | 
CO/C=C(/C(=O)OC)c1ccccc1Oc1cc(Oc2ccccc2C#N)ncn1 [Azoxystrobin, azoxystrobin] |  |  |  |  |  | 12.5† % | 37.3† % | statistically different from the control | 212^ Bu./acre | +16% Incr. over | +18% Incr. | 426 pounds of corn per inch of water applied | 145.4 Bu./acre | +7% incr over Untr./0% irr. | 151.1 Bu./acre | +11% incr over Untr./0% irr.
